Measurements: US9499553B2 (CHUGAI SEIYAKU KABUSHIKI KAISHA, priority 2013, dated 2016)

These compounds were tested against T1, human NaPi-IIb (Homo sapiens, UniProt O95436) (assay: Inhibitory effect on 33PO4 uptake into human NaPi-IIb-expressing CHO cells). Conditions: read-out: IC50.
T1 construct: expressed in transfected cells
T1 sequence (O95436 1-690): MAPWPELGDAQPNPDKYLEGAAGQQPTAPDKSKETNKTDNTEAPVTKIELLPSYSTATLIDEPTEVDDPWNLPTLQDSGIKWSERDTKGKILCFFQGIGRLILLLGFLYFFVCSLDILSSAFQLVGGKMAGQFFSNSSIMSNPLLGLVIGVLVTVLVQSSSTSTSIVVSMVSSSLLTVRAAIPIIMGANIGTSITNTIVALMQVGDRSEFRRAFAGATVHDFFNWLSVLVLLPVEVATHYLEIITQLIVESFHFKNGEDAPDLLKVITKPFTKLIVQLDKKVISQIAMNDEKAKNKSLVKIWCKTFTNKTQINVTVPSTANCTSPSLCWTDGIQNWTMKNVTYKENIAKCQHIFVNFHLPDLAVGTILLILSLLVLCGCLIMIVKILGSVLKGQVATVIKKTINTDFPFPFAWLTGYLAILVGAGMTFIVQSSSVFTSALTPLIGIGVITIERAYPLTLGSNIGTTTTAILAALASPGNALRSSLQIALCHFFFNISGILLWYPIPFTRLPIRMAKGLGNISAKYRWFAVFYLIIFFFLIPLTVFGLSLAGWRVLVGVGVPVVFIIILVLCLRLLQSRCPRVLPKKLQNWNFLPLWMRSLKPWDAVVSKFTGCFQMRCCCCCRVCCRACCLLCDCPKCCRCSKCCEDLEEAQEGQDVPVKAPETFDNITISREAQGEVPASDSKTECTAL
Assay type: cell-based
How it was run: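 Stable human NaPi-IIb CHO line (G418-selected), plated and cultured overnight; ³³PO4 added in buffer A and uptake run at room temperature. Cells washed with ice-cold buffer A, then uptake counted by liquid scintillation.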

SMILES | IC50 [µM]
COCCOc1cc(NC(=O)C2=C(O)[C@@]3(C)CCCN3N(Cc3cccc(F)c3F)C2=O)c(-c2cccc(OC)c2OC)cc1C(F)(F)F [Example 92] | 20.2
C[C@]12CCCN1N(Cc1cccc(F)c1F)C(=O)C(C(=O)Nc1ccc(C(F)(F)F)cc1-c1cnc3ccccc3c1)=C2O [Example 83] | 10.6
C[C@]12CCCN1N(Cc1cccc(F)c1F)C(=O)C(C(=O)Nc1ccc(C(F)(F)F)cc1-c1cnc(N3CC4(COC4)C3)c(C#N)c1)=C2O [Example 111, (4aR)—N-[2-[5-Cyano-6-(2-oxa-6-azaspiro[3.3]heptan-6-yl)pyridin-3-yl]-4-(trifluoromethyl)phenyl]-1-[(2,3-difluorophenyl)methyl]-4-hydroxy-4a-methyl-2-oxo-6,7-dihydro-5H-pyrrolo[1,2-b]pyridazine-3-carboxamide] | 20
C[C@]12CCCN1N(Cc1c(F)cc(C#CCCCCCOC[C@H](O)[C@@H](O)CO)cc1F)C(=O)C(C(=O)Nc1ccc(C(F)(F)F)cc1-c1ccc(C(F)(F)F)nc1)=C2O [Example 124, (4aR)-1-[[2,6-Difluoro-4-[7-[(2S,3S)-2,3,4-trihydroxybutoxy]hept-1-ynil]phenyl]methyl]-4-hydroxy-4a-methyl-2-oxo-N-[4-(trifluoromethyl)-2-[6-(trifluoromethyl)pyridin-3-yl]phenyl]-6,7-dihydro-5H-pyrrolo[1,2-b]pyridazine-3-carboxamide] | 2.5
CC(C)[C@@H]1C(O)=C(C(=O)Nc2ccc(Cl)cc2-c2cc(C(F)(F)F)ncn2)C(=O)N(Cc2cccc(F)c2F)N1C [Example 250] | 17.9
CN1[C@@H](C(C)(C)C)C(O)=C(C(=O)Nc2ccc(C(F)(F)F)cc2C(F)(F)F)C(=O)N1Cc1ccc(OCCN2CCOCC2)c(F)c1F [Example 277] | 17.8
CC(C)[C@H]1C(O)=C(C(=O)Nc2ccc(Cl)cc2-c2ccc(C(F)(F)F)nc2)C(=O)N(Cc2ccc(OCCN3CCOCC3)c(F)c2F)N1C [Example 281] | 18.8
CN1N(Cc2ccc(OCCN3[C@@H]4COC[C@H]3C4)c(F)c2F)C(=O)C(C(=O)Nc2ccc(C(F)(F)F)cc2-c2cc(C(F)(F)F)ncn2)=C(O)C12CCC2 [Example 339] | 19.1

Results, then the compound that gave them:

IC50 [µM] | SMILES
8.4 | COc1cccc(-c2cc(C(F)(F)F)ccc2NC(=O)C2=C(O)[C@@]3(C)CCCN3N(Cc3ccc(OCc4ccncc4)c(F)c3F)C2=O)c1OC [Example 151, (4aR)-1-[[2,3-Difluoro-4-(pyridin-4-ylmethoxy)phenyl]methyl]-N-[2-(2,3-dimethoxyphenyl)-4-(trifluoromethyl)phenyl]-4-hydroxy-4a-methyl-2-oxo-6,7-dihydro-5H-pyrrolo[1,2-b]pyridazine-3-carboxamide]
8.9 | C[C@]12CCCN1N(Cc1c(F)cc(C#CC3(O)CCCC3)cc1F)C(=O)C(C(=O)Nc1ccc(C(F)(F)F)cc1-c1ccc(C(F)(F)F)nc1)=C2O [Example 130]
9.5 | CC(C)[C@H]1C(O)=C(C(=O)Nc2ccc(C(F)(F)F)cc2-c2cc(C(F)(F)F)ncn2)C(=O)N(Cc2cccc(F)c2F)N1C [Example 252]
9.7 | CC(C)[C@H]1C(O)=C(C(=O)Nc2cc(F)c(Br)c(F)c2)C(=O)N(Cc2cccc(F)c2F)N1C [Example 254]
9.8 | CC(C)[C@@H]1C(O)=C(C(=O)Nc2ccc(C(F)(F)F)cc2-c2cc(C(F)(F)F)ncn2)C(=O)N(Cc2cccc(F)c2F)N1C [Example 249]
10.5 | C[C@]12CCCN1N(Cc1ccc(Br)cc1F)C(=O)C(C(=O)Nc1cc(F)c(Br)c(F)c1)=C2O [Example 166, (4aR)—N-(4-Bromo-3,5-difluorophenyl)-1-[(4-bromo-2-fluorophenyl)methyl]-4-hydroxy-4a-methyl-2-oxo-6,7-dihydro-5H-pyrrolo[1,2-b]pyridazine-3-carboxamide]
5 | C[C@]12CCCN1N(Cc1c(F)cc(C#CCN3CCOCC3)cc1F)C(=O)C(C(=O)Nc1ccc(C(F)(F)F)cc1-c1ccc(C(F)(F)F)nc1)=C2O [Example 132]
2 | C[C@]12CCCN1N(Cc1c(F)cccc1F)C(=O)C(C(=O)Nc1ccc(C(F)(F)F)cc1-c1ccc(C(F)(F)F)nc1)=C2O [Example 203]
4.4 | CC(C)[C@H]1C(O)=C(C(=O)Nc2ccc(C(F)(F)F)cc2-c2ccc(C(F)(F)F)nc2)C(=O)N(Cc2cccc(F)c2F)N1C [Example 253]
8.3 | CN(C)S(=O)(=O)c1ccc(-c2nc(C(F)(F)F)ccc2NC(=O)C2=C(O)[C@@]3(C)CCCN3N(Cc3cccc(F)c3F)C2=O)cc1 [Example 87]
1.3 | C[C@]12CCCN1N(Cc1cccc(F)c1Cl)C(=O)C(C(=O)Nc1ccc(C(F)(F)F)cc1-c1ccc(C(F)(F)F)nc1)=C2O [Example 201]
2.4 | C[C@]12CCCN1N(Cc1cccc(F)c1F)C(=O)C(C(=O)Nc1ccc(C(F)(F)F)cc1-c1ccc(C(F)(F)F)nc1)=C2O [Example 90]
1 | C[C@]12CCCN1N(Cc1c(F)cccc1Cl)C(=O)C(C(=O)Nc1ccc(C(F)(F)F)cc1-c1ccc(C(F)(F)F)nc1)=C2O [Example 204]
7.3 | C[C@]12CCCN1N(Cc1ccc(OC[C@H]3CCCO3)c(F)c1F)C(=O)C(C(=O)Nc1ccc(C(F)(F)F)cc1-c1ccc(C(F)(F)F)nc1)=C2O [Example 160]
3.5 | CN1N(Cc2cccc(F)c2F)C(=O)C(C(=O)Nc2ccc(C(F)(F)F)nc2-c2ccc(C(F)(F)F)nc2)=C(O)C1(C)C [Example 304]
8.6 | C[C@]12CCCN1N(Cc1cccc(F)c1F)C(=O)C(C(=O)Nc1ccc(Br)cc1-c1ccc(Cl)nc1)=C2O [Example 122, (4aR)—N-[4-Bromo-2-(6-chloropyridin-3-yl)phenyl]-1-[(2,3-difluorophenyl)methyl]-4-hydroxy-4a-methyl-2-oxo-6,7-dihydro-5H-pyrrolo[1,2-b]pyridazine-3-carboxamide]
6.6 | C[C@]12CCCN1N(Cc1ccc(F)cc1)C(=O)C(C(=O)Nc1ccc(C(F)(F)F)cc1-c1cc(C(F)(F)F)ncn1)=C2O [Example 208]
8.4 | C[C@]12CCCN1N(Cc1cccc(F)c1F)C(=O)C(C(=O)Nc1ccc(C(F)(F)F)cc1-c1ncnc(Cl)c1Cl)=C2O [Example 70]
7.6 | CC(C)[C@@H]1C(O)=C(C(=O)Nc2ccc(Cl)cc2-c2ccc(C(F)(F)F)nc2)C(=O)N(Cc2cccc(F)c2F)N1C [Example 251]
7.7 | CN1N(Cc2cccc(F)c2F)C(=O)C(C(=O)Nc2ccc(Cl)cc2-c2cc(C(F)(F)F)ncn2)=C(O)C12CCCC2 [Example 261]

Same assay, conditions: read-out: IC50 against 33PO4 uptake into human NaPi-IIb-expressing cells

IC50 [µM] | SMILES
17.4 | CN1N(Cc2ccc(OCCOCCNC(=O)[C@@H](O)[C@H](O)[C@@H](O)[C@@H](O)CO)c(F)c2F)C(=O)C(C(=O)Nc2ccc(C(F)(F)F)cc2-c2cc(C(F)(F)F)ncn2)=C(O)C12CCCC2 [Example 427]
7.8 | CN1N(Cc2ccc(OCCCCOCCCO)c(F)c2F)C(=O)C(C(=O)Nc2ccc(C(F)(F)F)cc2-c2cc(C(F)(F)F)ncn2)=C(O)C12CCCC2 [Example 399]
12.8 | CN(CCOc1ccc(CN2C(=O)C(C(=O)Nc3ccc(C(F)(F)F)cc3-c3cc(C(F)(F)F)ncn3)=C(O)C3(CCC3)N2C)c(F)c1F)C1COC1 [Example 402, 6-(2,3-Difluoro-4-(2-(methyl(oxetan-3-yl)amino)ethoxy)benzyl)-9-hydroxy-5-methyl-7-oxo-N-(4-(trifluoromethyl)-2-(6-(trifluoromethyl)pyrimidin-4-yl)phenyl)-5,6-diazaspiro[3.5]non-8-ene-8-carboxamide]
23.1 | CN1N(Cc2ccc(OCCN3CCN(CCO)CC3)c(F)c2F)C(=O)C(C(=O)Nc2ccc(C(F)(F)F)cc2-c2cc(C(F)(F)F)ncn2)=C(O)C12CCC2 [Example 360]
17.8 | COC[C@@H]1CCCN1CCOc1ccc(CN2C(=O)C(C(=O)Nc3ccc(C(F)(F)F)cc3-c3cc(C(F)(F)F)ncn3)=C(O)C3(CCCC3)N2C)c(F)c1F [Example 375]
17.1 | CN1N(Cc2ccc(OCCNCCS(=O)(=O)O)c(F)c2F)C(=O)C(C(=O)Nc2ccc(C(F)(F)F)cc2-c2cc(C(F)(F)F)ncn2)=C(O)C12CCCC2 [Example 435]
18.9 | COCCOc1cc(NC(=O)C2=C(O)C3(CCCC3)N(C)N(Cc3ccc(OCCN(C)CCOC)c(F)c3F)C2=O)c(-c2ncnc(C(F)(F)F)c2C)cc1C(F)(F)F [Example 439, 7-[[2,3-Difluoro-4-[2-[2-methoxyethyl(methyl)amino]ethoxy]phenyl]methyl]-10-hydroxy-N-[5-(2-methoxyethoxy)-2-[5-methyl-6-(trifluoromethyl)pyrimidin-4-yl]-4-(trifluoromethyl)phenyl]-6-methyl-8-oxo-6,7-diazaspiro[4.5]dec-9-ene-9-carboxamide]
8.7 | COCCN1CCN(CCOc2ccc(CN3C(=O)C(C(=O)Nc4ccc(C(F)(F)F)cc4-c4cc(C(F)(F)F)ncn4)=C(O)C4(CCCC4)N3C)c(F)c2F)CC1 [Example 377]
